In patent US9738684B2, “N-terminally modified linear and branched polyamine conjugated peptidomimetics as antimicrobials agents” (COUNCIL OF SCIENTIFIC & INDUSTRIAL RESEARCH, priority 2015, dated 2017):
Values after ≈ are worked out from the molar mass of the structure shown.

Key:
[1] = tested on: Staphylococcus species; experiment: Antibacterial activity; assay type: cell-based
Procedure: (§1) Following bacterial strains were used in this study: S. aureus (ATCC 29213), methicillin resistant S. aureus (ATCC 33591), Staphylococcus epidermidis (ATCC 12228), methicillin resistant Staphylococcus epidermidis(ATCC 51625), Enterococcus faecalis (ATCC 7080), Escherichia coli (ATCC 11775), and Acinetobacter baumannii (ATCC 19606). Antibacterial activity was evaluated using a modified serial broth dilution method in accordance with Clinical Laboratory Standard Institute guidelines [Methods for dilution antimicrobial susceptibility tests for bacteria that grow aerobically-7th ed. Approved standard M7-A7. Clinical and Laboratory Standards Institute, Wayne, Pa., Biochim. Biophys. Acta 1798:1864-1875, 2010.]. Briefly, the inoculums were prepared from mid-log phase bacterial cultures. Peptidomimetics were incubated with bacterial suspension in Muller Hinton broth media (10^5 CFU/mL) in 96 well microtitre plate. The plates were incubated overnight with agitation (200 rpm) at 37° C. After 18 h, absorbance was measured at 630 nm. Cultures without test peptidomimetics were used as positive control. Un-inoculated Mueller Hinton Broth (MHB) was used as negative control. Tests were carried out in duplicate on at least three different days. […] For comparison standard peptide antibiotics vancomycin (VAN) and polymyxin B (PMB) were also assayed under identical conditions (Table 2). […] Further, antibacterial activity of active peptidomimetics 1c and 1d were also evaluated against MRSA in presence of 25% v/v human serum as well as bovine serum.

[2] = tested on: Gram-negative bacterial strains; experiment: Antibacterial activity; assay type: cell-based
Procedure: as §1

[3] = tested on: Escherichia coli (ATCC 11775); experiment: MIC, serial broth dilution; assay type: cell-based; parameters: MIC E. coli. (ATCC 11775): unit not given here
Procedure: (§2) The peptidomimetics designed in present invention were evaluated as antibacterial therapeutics against a broad range of bacterial strains by broth microdilution method. The antibacterial activity of the peptidomimetics was reported in terms of the minimum inhibitory concentrations (MIC).
as §1

[4] = tested on: Enterococcus faecalis (ATCC 7080); experiment: MIC, serial broth dilution; assay type: cell-based; conditions: MHB, 18 h, 37° C.
Procedure: as §2, §1

[5] = tested on: Staphylococcus epidermidis (ATCC 12228); experiment: MIC, serial broth dilution; assay type: cell-based; conditions: for MIC S. epidermidis (ATCC 12228): MHB, 18 h, 37° C.
Procedure: as §2, §1

[6] = tested on: methicillin resistant Staphylococcus epidermidis (ATCC 51625); experiment: MIC, serial broth dilution; assay type: cell-based; conditions: 18 h
Procedure: as §2, §1

[7] = tested on: methicillin resistant S. aureus (ATCC 33591); experiment: MIC, serial broth dilution; assay type: cell-based, Staphylococcus aureus; conditions: 18 h; for MIC MRSA (ATCC 33591): MHB, 37° C.
Procedure: as §2, §1

[8] = tested on: S. aureus (ATCC 29213); experiment: MIC, serial broth dilution; assay type: cell-based, Staphylococcus aureus; conditions: for MIC S. aureus (ATCC 29213): MHB, 18 h, 37° C.
Procedure: as §2, §1

[9] = tested on: Gram-positive bacterial strains; experiment: Antibacterial activity; assay type: cell-based
Procedure: as §1

[10] = tested on: MRSA; experiment: Membrane depolarization with DiSC3(5) dye; assay type: cell-based, Staphylococcus aureus; conditions: up to the highest concentration tested
Procedure: For determination of membrane depolarizing ability of designed peptidomimetics, a membrane potential sensitive dye DiSC3(5) was used as described previously with minor modifications [Org Biomol. Chem. 10: 8326-8335, 2012; J. Am. Chem. Soc., 132: 18417-18428, 2010.]. Briefly, overnight grown MRSA was sub cultured into MHB for 2-3 h at 37° C. to obtain mid-log phase cultures. The cells were centrifuged at 4000 rpm for 10 min at 25° C., washed, and re-suspended into respiration buffer (5 mM HEPES, 20 mM glucose, pH 7.4) to obtain a diluted suspension of OD600˜0.05. Then DiSC3(5) [0.18 μM in DMSO], was added to 500 μL aliquotes of the re-suspended cells and allowed to stabilize for 1 h. Baseline fluorescence was acquired using a Edinburg F900 spectrofluorometer by excitation at 622 nm and emission at 670 nm in a 1 cm path length cuvette. Bandwidth of 5 nm was employed for excitation and emission. Subsequently, increasing concentrations of test peptidomimetics were added to the stabilized cells and the increase of fluorescence on account of the de-quenching of DiSC3(5) dye was measured after every 2 min to obtain the maximal depolarization. Increase in relative fluorescence unit (RFU) was plotted against increasing concentrations of different peptidomimetics or PMB. […] The increase in fluorescence for lipid tagged peptidomimetics was concentration dependent up to 9.9 μg/mL and henceforth, got saturated resulting into plateau like dose response curves. The experiment was repeated twice on two consecutive days and produced similar results.

[11] = tested on: human red blood cells (hRBC); experiment: Hemolytic activity; assay type: cell-based; conditions: 250 μg/mL, 1 h at 37° C.
Procedure: Hemolytic activity of the peptidomimetics was evaluated on human red blood cells (hRBC) as described previously with minor modifications [FEBS J, 273:4040-4054, 2006; Biochim Biophys Acta., 1798:1864-1875, 2010]. Briefly, 100 μL of fresh hRBC suspension 4% v/v in NaCl/Pi (35 mM phosphate buffer, 150 mM NaCl, pH 7.2) was placed in a 96-well plate. After incubation of the peptidomimetics (100 μL) in the hRBC suspension for 1 h at 37° C., the plates were centrifuged and supernatant (100 μL) was transferred to fresh 96-well plate. Absorbance was read at 540 nm using ELISA plate reader (Molecular Devices). Percent hemolysis was calculated using the following formula: % hemolysis=100[(A−A0)/(At−A0)]
Where, A represents absorbance of sample wells at 540 nm. Also A0 and At represents 0% and 100% hemolysis determined in NaCl/Pi and 1% Triton X-100, respectively (Table 2). […] Peptidomimetics 1e and 1f caused 31% and 30% hemolysis at 250 μg/mL. Peptidomimetics 2d, 2e and 2f caused significant hemolysis with 83%, 96% and 88% damage to hRBCs at […] respectively.

[12] = tested on: MRSA (ATCC 33591) biofilm; experiment: Confocal laser scanning microscopy of biofilm, thickness by z-stacking; assay type: cell-based, Staphylococcus aureus; conditions: for confocal observation of mature biofilm: 24 h preformed biofilm
Excerpt: For visualization of biofilm and validation of AB and CV assay we performed confocal microscopy. For this biofilm formation was induced on glass cover slips in a 6-well plate. The biofilm on cover slips were washed twice with sterile NaCl/Pi buffer and stained with a Live/Dead kit reagent (Invitrogen, Molecular Probes, Eugene, Oreg., USA) following the manufacturer's instructions. This stain contains DNA binding dyes SYTO 9 (green fluorescent) and propidium iodide (PI; red fluorescent). When used alone, SYTO 9 stains all bacteria in a population, those with intact as well as damaged membranes. In contrast, PI penetrates only bacteria with damaged membranes, causing a reduction in the SYTO 9 stain (green fluorescence). The biofilms were examined with an Olympus flow view FV1000 (confocal laser scanning microscope, CLSM). The experiment was repeated three times on three different days and representative data is presented here.
We next measured the thickness of biofilm using z-stacking in confocal microscopy. […] At MICb, 1c and 1d prevented formation of biofilm in which very few cells were adhered to substratum with observed average thickness of 3.9±1.1 μm and 3.5±0.6 μm, respectively. Furthermore, at sub-MICb concentration the observed thicknesses were 5.2±0.3 μm and 5.8±0.4 μm (FIG. 7A.b and FIG. 7A.d).

[13] = tested on: MRSA (ATCC 33591); experiment: Planktonic MIC in biofilm media (MICb); assay type: cell-based, Staphylococcus aureus; conditions: TSB with 0.5% NaCl and 0.25% glucose
[14] = tested on: Acinetobacter baumannii (ATCC 19606); experiment: MIC, serial broth dilution; assay type: cell-based; conditions: Acinetobacter baumannii, ATCC19606, 18 h, read-out: MIC A. baumannii (ATCC 19606)
Procedure: as §2, §1

[15] = tested on: S. aureus (ATCC 33591); experiment: Resistance development study, serial passage at sub MIC; assay type: cell-based, Staphylococcus aureus; conditions: 17 serial passages at sub MIC
Procedure: FIG. 5: Illustration of resistance development study in S. aureus (ATCC 33591) after 17 serial passages with sub MIC of 1c/1d or antibiotic treatment. The fold change in MIC is the ratio of the MIC after 17 passages relative to that MIC observed before first passage.
To determine potential of active peptidomimetics against resistance development, in vitro serial passage method at sub inhibitory concentration was done. Briefly, bacterial suspension (100 μL) from duplicate wells at the concentration of sub-MIC was used to inoculate fresh culture. The culture was grown to obtain approximately 10^5 CFU/mL for the next experiment. These bacterial suspensions were then incubated with desired concentration of antibacterial agents for 18 h to determine new MIC. The same sub culturing protocol was used for next 16 passages and MIC was determined using OD630 nm as described previously in the text [Chem. Biol., 20:1286-1295, 2013.]

[16] = tested on: MRSA (ATCC 33591) biofilm; experiment: 24 h preformed mature biofilm (alamar blue, crystal violet); assay type: cell-based, Staphylococcus aureus; conditions: Staphylococcus aureus, 24 h, read-out: viable cells in 24 h pre-formed mature biofilm (alamar blue)
Procedure: To evaluate potential of designed active peptidomimetics against MRSA biofilms a methodology as used previously was employed with minor modifications [Antimicrob. Agents Chemother., 57:2726-2737, 2013]. Briefly, freshly inoculated MRSA (ATCC 33591) was grown in biofilm growth media (TSB supplemented with 0.5% w/v NaCl and 0.25% w/v glucose) overnight. Next day, the culture was diluted in fresh biofilm growth media to 10^5 CFU/mL. 200 μl of diluted culture was dispensed in wells of a 96-well polystyrene plate for biofilm formation. […] Biofilm cultures were re-incubated at 37° C. for 24 h. After removal of medium, the biofilms were further washed twice with sterile NaCl/Pi buffer and assessed for metabolic activity (alamar blue assay) and biomass quantification (Crystal violet assay).

Compound: polymyxin B [PMB, reference compound]
- activity against Staphylococcus species [1]: relatively poor activity
- growth inhibition of Gram-negative bacterial strains [2]: excellent growth inhibition
- MIC E. coli. (ATCC 11775) ([3]; MHB, 18 h, 37° C.): 0.4
- MIC E. facaelis (ATCC 7080) [4]: 0.1136 µg/mL
- MIC S. epidermidis (ATCC 12228) [5]: 7.1 µg/mL
- MIC MRSE (ATCC 51625) ([6]; MHB, 37° C.): 0.0284 µg/mL
- MIC MRSA (ATCC 33591) [7]: 28.4 µg/mL
- MIC S. aureus (ATCC 29213) [8]: 0.0142 µg/mL

Compound: NCCCNCCCCNCCCNC(=O)C(Cc1c[nH]c2ccccc12)NC(=O)C(N)Cc1c[nH]c2ccccc12 (stereo not drawn) [1a]
- activity against Gram-positive bacterial strains [9]: moderate activity
- change in relative fluorescence unit (RFU), membrane depolarization [10]: only minor increase
- MIC E. facaelis (ATCC 7080) [4]: 0.4545 µg/mL (≈ 0.791 µM)
- MIC S. epidermidis (ATCC 12228) [5]: 113.6 µg/mL (≈ 198 µM)
- % H, percentage hemolysis of human RBCs [11]: 4%
- MIC MRSA (ATCC 33591) [7]: 227.2 µg/mL (≈ 395 µM)
- MIC S. aureus (ATCC 29213) [8]: 0.1136 µg/mL (≈ 0.198 µM)

Compound: CN[C@H](CC(C)C)C(=O)N[C@H]1C(=O)N[C@@H](CC(N)=O)C(=O)N[C@H]2C(=O)N[C@H]3C(=O)N[C@H](C(=O)N[C@H](C(=O)O)c4cc(O)cc(O)c4-c4cc3ccc4O)[C@H](O)c3ccc(c(Cl)c3)Oc3cc2cc(c3O[C@@H]2O[C@H](CO)[C@@H](O)[C@H](O)[C@H]2O[C@H]2C[C@](C)(N)[C@H](O)[C@H](C)O2)Oc2ccc(cc2Cl)[C@H]1O [VAN, vancomycin, reference compound]
- activity against Staphylococcus species [1]: potent growth inhibition
- growth inhibition of Gram-negative bacterial strains [2]: ineffective
- confocal observation of mature biofilm ([12]; 10×MICb): little effect
- confocal observation of mature biofilm ([12]; 20×MICb): slight decrease in the height of mature biofilm
- average thickness of biofilm, biofilm formation ([12]; MICb, control 14.3±1.4 μm): 11.4±2.9 μm
- thickness of biofilm, biofilm formation ([12]; sub-MICb, control 14.3±1.4 μm): unable to reduce biofilm thickness
- MICb, planktonic MIC in biofilm media [13]: 0.8 µg/mL
- MIC ([3]; Escherichia coli, ATCC11775, 18 h, read-out: MIC E. coli. (ATCC 11775)): 0.114 µg/mL (≈ 0.0784 µM)
- MIC [14]: 0.0568 µg/mL (≈ 0.0392 µM)
- MIC ([5]; Staphylococcus epidermidis, ATCC12228, 18 h, read-out: MIC S. epidermidis (ATCC 12228)): 0.0004 µg/mL (≈ 0.000276 µM)
- MIC ([6]; Staphylococcus epidermidis, ATCC 51625 / MRSE, read-out: MIC MRSE (ATCC 51625)): 0.0008 µg/mL (≈ 0.000552 µM)
- increase in MIC after 17 passages [15]: 4 fold
- viability at 20 µg/mL [16]: 77.7 ± 7%
- MIC ([7]; Staphylococcus aureus, ATCC 33591 / MRSA, read-out: MIC MRSA (ATCC 33591)): 0.0008 µg/mL (≈ 0.000552 µM)
- MIC ([8]; Staphylococcus aureus, ATCC29213, 18 h, read-out: MIC S. aureus (ATCC 29213)): 0.0004 µg/mL (≈ 0.000276 µM)
